Series [1] deals with mouse models of arthritis. The note with it: purified celastrol, 1-3 mg/kg daily; cited from earlier work.
In series [2] the test system is celastrol signature. Nature of the series: Connectivity Map query with the celastrol signature. In kind it is cell-based, human. The method, boiled down: (§1)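 LNCaP cells received celastrol 1.25 μM or gedunin 20 μM for 6 h. Each signature was scored by Kolmogorov–Smirnov-based connectivity against 453 build01 profiles, mostly 6 h treatments of MCF7 cells.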
The test system of series [3] is HSP90-HOP interaction. The series is described as follows: HSP90 coimmunoprecipitation, HOP. In kind it is cell-based. The note with it: SKBR-3 cells; celastrol 2.5 μM, 12 hr. The method, then:
Geldanamycin and other HSP90 inhibitors are known to inhibit p23 association with HSP90 (Felts et al., 2003). In contrast, HSP90-HOP interaction was unaltered by celastrol and other HSP90 inhibitors (FIG. 7F). Thus, celastrol inhibits the functional interactions of HSP90 and suppresses HSP90 client levels.
SKBR-3 cells were treated with vehicle, celastrol (2.5 μM, 12 hr), and PU24FCI (20 μM, 24 hr) (Vilenchik et al., 2004). Cells were lysed in 20 mM Tris HCl (pH 7.4), 25 mM NaCl, 2 mM DDT, 20 mM Na2MoO4, 0.1% NP-40, and […]. Lysates were incubated for 2 hr at 4° C., rotating, and then centrifuged at 13,000×g for 10 min. Protein (500 μg) was incubated with H9010 anti-HSP90 antibody for 1 hr at 4° C., rotating. Protein G agarose (30 μl; Upstate) was added to each sample, and samples were then incubated for 1 hr at 4° C., rotating. The beads were washed five times with 1 ml lysis buffer. Bound proteins were isolated by boiling in sample buffer. The levels of HSP90 and coimmunoprecipitating proteins were analyzed by western blot.

The subject of series [4] is gedunin signature. The series is described as follows: Connectivity Map query with the gedunin signature. In kind it is cell-based, human. The method in brief:
as §1

Series [5] deals with hERG potassium channel (Homo sapiens, UniProt Q12809). Particulars: by inhibiting hERG maturation (Sun et al., 2006); cited from earlier work. For orientation: hERG is a cardiac potassium channel; its block is linked to QT prolongation.
Chain of hERG potassium channel (Q12809 whole entry): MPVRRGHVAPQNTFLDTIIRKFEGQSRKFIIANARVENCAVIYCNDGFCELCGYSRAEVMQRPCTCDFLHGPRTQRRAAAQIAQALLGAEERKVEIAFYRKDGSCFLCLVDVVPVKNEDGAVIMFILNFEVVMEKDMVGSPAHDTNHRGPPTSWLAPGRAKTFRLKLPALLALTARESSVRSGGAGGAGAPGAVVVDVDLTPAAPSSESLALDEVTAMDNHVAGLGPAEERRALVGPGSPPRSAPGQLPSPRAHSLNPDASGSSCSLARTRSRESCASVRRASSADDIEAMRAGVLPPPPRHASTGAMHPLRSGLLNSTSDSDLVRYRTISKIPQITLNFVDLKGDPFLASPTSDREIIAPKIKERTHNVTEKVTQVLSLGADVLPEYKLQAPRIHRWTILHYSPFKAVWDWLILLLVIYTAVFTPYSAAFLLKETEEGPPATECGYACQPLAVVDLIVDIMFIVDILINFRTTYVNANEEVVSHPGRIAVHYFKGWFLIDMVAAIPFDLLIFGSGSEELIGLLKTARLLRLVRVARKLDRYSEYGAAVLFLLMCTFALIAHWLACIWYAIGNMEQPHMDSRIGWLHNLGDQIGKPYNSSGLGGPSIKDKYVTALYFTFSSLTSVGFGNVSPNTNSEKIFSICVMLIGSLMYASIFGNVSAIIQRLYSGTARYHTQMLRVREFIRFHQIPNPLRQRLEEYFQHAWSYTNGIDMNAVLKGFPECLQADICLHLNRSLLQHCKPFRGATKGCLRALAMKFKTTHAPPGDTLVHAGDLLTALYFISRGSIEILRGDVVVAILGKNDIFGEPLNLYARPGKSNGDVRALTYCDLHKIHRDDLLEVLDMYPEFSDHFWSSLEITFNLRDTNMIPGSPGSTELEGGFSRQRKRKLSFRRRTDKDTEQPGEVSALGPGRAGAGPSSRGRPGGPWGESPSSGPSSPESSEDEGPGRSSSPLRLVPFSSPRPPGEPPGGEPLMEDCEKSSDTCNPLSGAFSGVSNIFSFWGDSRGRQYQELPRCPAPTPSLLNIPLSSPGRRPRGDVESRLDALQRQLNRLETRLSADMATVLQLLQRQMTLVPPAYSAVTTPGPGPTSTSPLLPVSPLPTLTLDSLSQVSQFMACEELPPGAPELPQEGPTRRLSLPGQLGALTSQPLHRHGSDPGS
The subject of series [6] is Raf-1. Nature of the series: Western blot of HSP90 client Raf-1 level. The note with it: LNCaP, 1.25 μM, 24 hours. In kind it is cell-based. (Immunoblotting shows a protein as a band on a membrane.)
The test system of series [7] is rat models for Alzheimer's disease. Particulars: 7 mg/kg daily; cited from earlier work.
In series [8] the test system is HSP70. Particulars: Westerheide et al., 2004; cited from earlier work.

These results are taken from patent publication US20110263693A1, “CELASTROL, GEDUNIN, AND DERIVATIVES THEREOF AS HSP90 INHIBITORS” (DANA-FARBER CANCER INSTITUTE, INC., priority 2006, published 2011).

On to `CC1=C(O)C(=O)C=C2C1=CC=C1[C@@]2(C)CC[C@@]2(C)[C@@H]3C[C@](C)(C(=O)O)CC[C@]3(C)CC[C@]12C` [celastrol], for which the “bioactivity in mouse models of arthritis” value in series [1] is “significant bioactivity”. In addition, in series [2] (enrichment of the celastrol signature (1.25 μM celastrol at 6 h, LNCaP) in the compound's Connectivity Map profiles, 6 hr treatment), the “celastrol score (connectivity score)” value is listed as 0.85. Moreover, in series [2] (out of 164 compounds, signature from LNCaP 1.25 μM, 6 hr), the “Connectivity Map rank of match for the celastrol signature” value was “fourth-ranked match”. The “HSP90-HOP interaction (coimmunoprecipitation)” value in series [3] is “unaltered”. In series [4] (enrichment of the gedunin signature (20 μM gedunin at 6 hours, LNCaP) in the compound's Connectivity Map profiles, 6 hr treatment), the “gedunin score (connectivity score)” value was 0.997. In series [4] (out of 164 compounds, signature from LNCaP 20 μM, 6 hr), the “Connectivity Map rank of match for the gedunin signature” value is listed as “top match”. The “hERG potassium channel activity” value in series [5] was “suppress hERG potassium channel activity”. Moreover, in series [6], the “level of Raf-1” value is “decreases the levels”. Further, the “activity in rat models for Alzheimer's disease” value in series [7] was “activity”. The HSP70 levels result in series [8] is “induce HSP70 levels”.
